Data taken from patent publication US10780101B2, “Amide derivatives of squalamine for the treatment of infections” (VIRBAC, priority 2016, dated 2020).
Converted amounts (≈) assume the structure as drawn.

Legend:
[1] = tested on: S. aureus Human ATCC 25923; test: MIC determination, S. aureus human ATCC 25923; type: cell-based; conditions: Staphylococcus aureus, ATCC25923; Gram-positive; Mueller-Hinton medium, 24 h at 37° C.
Experimental: (§1) A negative control (2 mL of sterile culture medium)
(§2) A positive control (1940 μL of culture medium+40 μL of DMSO+20 μL of the bacterial suspension) from a thawed biological strain (the biological strains are stored at −80° C. in glycerol).
(§3) The tubes were incubated at 37° C. for 24 hours at 100 rpm.
(§4) The microorganisms were handled under a type L2 laboratory fume cupboard and, before any handling, a UV cycle was programmed and only sterile material was used. […] The chemical compounds to be tested were prepared in a DMSO/methanol mixture (50/50) at a concentration of 5 mg/mL.
(§5) After 24 hours of incubation, a measurement of the optical density was taken using a spectrophotometer at 600 nm, collecting 100 μL of the bacterial suspension diluted in 900 μL of the sterile culture medium. This test required the use of a 96-well plate and the required volume of the microbial suspension to be seeded was calculated for an OD corresponding to a value equal to 0.01 in each well. In this plate, the first line corresponded to the negative control (195 μL of sterile culture medium in each well), the second line corresponded to the positive control (seeded culture medium supplemented with 2% of DMSO), and the third line was loaded twice with bacterial suspension; 8 μL of test product were placed in each well. Thereafter, a 0.5 cascade dilution was performed from this line.
(§6) The first column served as inhibition control. A sterile filter was then placed on the microplate, allowing the passage of gases but not of contaminants. The microplate was incubated at 37° C. under a humid atmosphere for 24 hours.
(§7) NB: The medium used is Mueller-Hinton (MH) medium for bacteria. All the tests were performed in duplicate.
(§8) After incubation, the filter was replaced with a transparent film, and an OD reading was then taken in an iEMS plate spectrophotometer at 620 nm. Calculation of the minimum inhibitory concentration (MIC) was performed.

S. aureus Animal (340) = test: MIC determination, S. aureus animal (340); type: cell-based; conditions: Staphylococcus aureus; Gram-positive; Mueller-Hinton medium, 24 h at 37° C.
Experimental: as §1, §2, §3, §4, §5, §6, §7, §8

[2] = tested on: S. intermedius Animal (1051997); test: MIC determination, S. intermedius animal (1051997); type: cell-based; conditions: Staphylococcus intermedius; Gram-positive; Mueller-Hinton medium, 24 h at 37° C.
Experimental: as §1, §2, §3, §4, §5, §6, §7, §8

[3] = tested on: E. faecalis Human ATCC 29212; test: MIC determination, E. faecalis human ATCC 29212; type: cell-based; conditions: Enterococcus faecalis, ATCC29212; Gram-positive; Mueller-Hinton medium, 24 h at 37° C.
Experimental: as §1, §2, §3, §4, §5, §6, §7, §8

E. coli Human ATCC 28922 = test: MIC determination, E. coli human ATCC 28922; type: cell-based; conditions: Escherichia coli, ATCC28922; Gram-negative; Mueller-Hinton medium, 24 h at 37° C.
Experimental: as §1, §2, §3, §4, §5, §6, §7, §8

E. coli Animal (1956) = test: MIC determination, E. coli animal (1956); type: cell-based; conditions: Escherichia coli; Gram-negative; Mueller-Hinton medium, 24 h at 37° C.
Experimental: as §1, §2, §3, §4, §5, §6, §7, §8

[4] = tested on: P. aeruginosa Human ATCC 27853; test: MIC determination, P. aeruginosa human ATCC 27853; type: cell-based; conditions: Pseudomonas aeruginosa, ATCC27853; Gram-negative; Mueller-Hinton medium, 24 h at 37° C.
Experimental: as §1, §2, §3, §4, §5, §6, §7, §8

[5] = tested on: P. aeruginosa Animal (1051575); test: MIC determination, P. aeruginosa animal (1051575); type: cell-based; conditions: Pseudomonas aeruginosa; Gram-negative; Mueller-Hinton medium, 24 h at 37° C.
Experimental: as §1, §2, §3, §4, §5, §6, §7, §8

CHO-K1 cells = test: WST1 cytotoxicity test on CHO-K1 cells; type: cell-based, Chinese hamster; conditions: Cricetulus griseus, CHO-K1, 24 h, read-out: IC50 (μg/mL) CHO
Experimental: Test WST1 was used to measure the cytotoxic activity of the products. This is a colorimetric test which makes it possible to measure the viability and the degree of cell proliferation. It is based on cleavage of the colorless tetrazolium salts WST-1 (4-[3-(4-iodophenyl)-2-(4-nitrophenyl)-2H-5-tetrazolio]-1,3-benzene disulfonate) with mitochondrial dehydrogenases to the yellow-colored formazan derivative, which may be quantified by spectrophotometry at 420-480 nm.
The WST1 test was performed on Chinese hamster ovary cells. The CHO-K1 cells (ATCC, USA) are kept in culture in McCoy's 5A medium supplemented with 10% fetal calf serum, 2 mM of L-glutamine and a mixture of penicillin-streptomycin (100 U/ml: 10 μg/ml). The culture is incubated at 37° C. under an atmosphere enriched in CO2 (5%), and subcultured every two days.
The cells are transferred into 96-well plates (25000 cells/mL) in whole McCoy's 5A medium, and maintained for 24 hours at 37° C. under a humid atmosphere enriched in CO2 (5%). Increasing concentrations of test products are added to the wells in double tests and 8 growth controls containing the cells in the medium alone are included in each series of tests. After 24 hours at 37° C. (5% CO2), the culture medium is removed, the cells are rinsed in phosphate buffer (PBS) and 50 μL of PBS containing 10% of reagent WST1 are added to each well. After 20 minutes of incubation at 37° C., the results are read by spectrophotometry at 450 nm.
The results are expressed in dose-response relationships, modeled by nonlinear regression analysis using the TableCurve software. The 50% inhibitory concentration (IC50) represents the concentration of product that is capable of reducing the cell viability by 50%.

P. aeruginosa (1051575) = test: Potentiation of doxycycline activity (combination MIC); type: cell-based, Pseudomonas aeruginosa; conditions: in presence of doxycycline 2 μg/mL; 24 hours at 37° C.

## CNC(=O)CC[C@@H](C)[C@H]1CCC2C3C(CC[C@@]21C)[C@@]1(C)CC[C@H](NCCCNCCCCNCCCN)CC1C[C@H]3O (stereo partly shown) [Compound (33)]
[1]
  MIC: 3.5 µg/mL (≈ 5.93 µM)
S. aureus Animal (340)
  MIC: 1 µg/mL (≈ 1.7 µM)
[2]
  MIC: 0.8 µg/mL (≈ 1.36 µM)
[3]
  MIC: 14 µg/mL (≈ 23.7 µM)
E. coli Human ATCC 28922
  MIC: 14 µg/mL (≈ 23.7 µM)
E. coli Animal (1956)
  MIC: 7 µg/mL (≈ 11.9 µM)
[4]
  MIC: 7 µg/mL (≈ 11.9 µM)
[5]
  MIC: 2 µg/mL (≈ 3.39 µM)
CHO-K1 cells
  IC50: 35 µg/mL (≈ 59.3 µM)
P. aeruginosa (1051575)
  MIC - P. aeruginosa (1051575): content of compound of formula (I) to restore the doxycycline activity (at 2 μg/mL): 1 µg/mL

## CCN(CC)C(=O)CC[C@@H](C)[C@H]1CCC2C3C(CC[C@@]21C)[C@@]1(C)CC[C@H](NCCCNCCCN)CC1C[C@H]3O (stereo partly drawn) [(13), 3β-norspermidino-N,N-diethylchenodeoxycholamide]
[1]
  MIC: 2 µg/mL (≈ 3.57 µM)
S. aureus Animal (340)
  MIC: 4 µg/mL (≈ 7.13 µM)
[2]
  MIC: 2 µg/mL (≈ 3.57 µM)
[3]
  MIC: 2 µg/mL (≈ 3.57 µM)
E. coli Human ATCC 28922
  MIC: 8 µg/mL (≈ 14.3 µM)
E. coli Animal (1956)
  MIC: 8 µg/mL (≈ 14.3 µM)
[4]
  MIC: 16 µg/mL (≈ 28.5 µM)
[5]
  MIC: 16 µg/mL (≈ 28.5 µM)
CHO-K1 cells
  IC50: 22 µg/mL (≈ 39.2 µM)
P. aeruginosa (1051575)
  MIC - P. aeruginosa (1051575): content of compound of formula (I) to restore the doxycycline activity (at 2 μg/mL): 2 µg/mL

## CNC(=O)CC[C@@H](C)[C@H]1CCC2C3C(CC[C@@]21C)[C@@]1(C)CC[C@H](NCCCNCCCNCCCN)CC1C[C@H]3O (stereo partly drawn) [(10), 3β-norspermino-N-methylchenodeoxycholamide]
[1]
  MIC: 7 µg/mL (≈ 12.2 µM)
S. aureus Animal (340)
  MIC: 1 µg/mL (≈ 1.74 µM)
[2]
  MIC: 1 µg/mL (≈ 1.74 µM)
[3]
  MIC: 14 µg/mL (≈ 24.3 µM)
E. coli Human ATCC 28922
  MIC: 14 µg/mL (≈ 24.3 µM)
E. coli Animal (1956)
  MIC: 7 µg/mL (≈ 12.2 µM)
[4]
  MIC: 28 µg/mL (≈ 48.6 µM)
[5]
  MIC: 5 µg/mL (≈ 8.68 µM)
CHO-K1 cells
  IC50: 35 µg/mL (≈ 60.8 µM)
P. aeruginosa (1051575)
  MIC - P. aeruginosa (1051575): content of compound of formula (I) to restore the doxycycline activity (at 2 μg/mL): 1 µg/mL

## CC(C)NC(=O)CC[C@@H](C)[C@H]1CCC2C3CCC4C[C@@H](NCCCN(C)CCCN)CC[C@]4(C)C3CC[C@@]21C (stereo partly drawn) [(29), 3β-(bis(3-aminopropyl)methylamine)-N-isopropyllithocholamide]
[1]
  MIC: 14 µg/mL (≈ 25.7 µM)
S. aureus Animal (340)
  MIC: 14 µg/mL (≈ 25.7 µM)
[2]
  MIC: 7 µg/mL (≈ 12.8 µM)
[3]
  MIC: 28 µg/mL (≈ 51.4 µM)
E. coli Human ATCC 28922
  MIC: 28 µg/mL (≈ 51.4 µM)
E. coli Animal (1956)
  MIC: 28 µg/mL (≈ 51.4 µM)
[4]
  MIC: 112 µg/mL (≈ 206 µM)
[5]
  MIC: 112 µg/mL (≈ 206 µM)
CHO-K1 cells
  IC50: 6 µg/mL (≈ 11 µM)
P. aeruginosa (1051575)
  MIC - P. aeruginosa (1051575): content of compound of formula (I) to restore the doxycycline activity (at 2 μg/mL): 7 µg/mL

## CC(C)NC(=O)CC[C@@H](C)[C@H]1CCC2C3CCC4C[C@@H](NCCCNCCCNCCCN)CC[C@]4(C)C3CC[C@@]21C (stereo partly drawn) [(17), 3β-norspermino-N-isopropyllithocholamide]
[1]
  MIC: 8 µg/mL (≈ 13.6 µM)
S. aureus Animal (340)
  MIC: 8 µg/mL (≈ 13.6 µM)
[2]
  MIC: 4 µg/mL (≈ 6.8 µM)
[3]
  MIC: 8 µg/mL (≈ 13.6 µM)
E. coli Human ATCC 28922
  MIC: 16 µg/mL (≈ 27.2 µM)
E. coli Animal (1956)
  MIC: 32 µg/mL (≈ 54.4 µM)
[4]
  MIC: 64 µg/mL (≈ 109 µM)
[5]
  MIC: 32 µg/mL (≈ 54.4 µM)
CHO-K1 cells
  IC50: 17 µg/mL (≈ 28.9 µM)
P. aeruginosa (1051575)
  MIC - P. aeruginosa (1051575): content of compound of formula (I) to restore the doxycycline activity (at 2 μg/mL): 2 µg/mL

## CC(C)NC(=O)CC[C@@H](C)[C@H]1CCC2C3CCC4C[C@@H](NCCCN5CCN(CCCN)CC5)CC[C@]4(C)C3C[C@H](O)[C@@]21C (stereo partly drawn) [(3), 3β-(1,4-bis(3-aminopropyl)piperazine)-N-isopropyldeoxycholamide]
[1]
  MIC: 15 µg/mL (≈ 24.4 µM)
S. aureus Animal (340)
  MIC: 15 µg/mL (≈ 24.4 µM)
[2]
  MIC: 4 µg/mL (≈ 6.49 µM)
[3]
  MIC: 124 µg/mL (≈ 201 µM)
E. coli Human ATCC 28922
  MIC: 124 µg/mL (≈ 201 µM)
E. coli Animal (1956)
  MIC: > 124 µg/mL
[4]
  MIC: 124 µg/mL (≈ 201 µM)
[5]
  MIC: 62 µg/mL (≈ 101 µM)
CHO-K1 cells
  IC50: 120 µg/mL (≈ 195 µM)
P. aeruginosa (1051575)
  MIC - P. aeruginosa (1051575): content of compound of formula (I) to restore the doxycycline activity (at 2 μg/mL): 2 µg/mL

## CC(C)NC(=O)CC[C@@H](C)[C@H]1CCC2C3C(C[C@H](O)[C@@]21C)[C@@]1(C)CC[C@H](NCCCN2CCN(CCCN)CC2)CC1C[C@H]3O (stereo partly shown) [(6)]
[1]
  MIC: 16 µg/mL (≈ 25.3 µM)
S. aureus Animal (340)
  MIC: 32 µg/mL (≈ 50.6 µM)
[2]
  MIC: 16 µg/mL (≈ 25.3 µM)
[3]
  MIC: 32 µg/mL (≈ 50.6 µM)
E. coli Human ATCC 28922
  MIC: 32 µg/mL (≈ 50.6 µM)
E. coli Animal (1956)
  MIC: 64 µg/mL (≈ 101 µM)
[4]
  MIC: 218 µg/mL (≈ 345 µM)
[5]
  MIC: 64 µg/mL (≈ 101 µM)
CHO-K1 cells
  IC50: 100 µg/mL (≈ 158 µM)
P. aeruginosa (1051575)
  MIC - P. aeruginosa (1051575): content of compound of formula (I) to restore the doxycycline activity (at 2 μg/mL): 8 µg/mL
